Publication PMC11079024, “Identification of a family of species-selective complex I inhibitors as potential anthelmintics” (Nature Communications, 2024)
“And” between values parts separate entries of the source, which are not always exact repeats. Equal values may be shown once. Read-outs that look alike come from different tables or passages of the source.

Key:
[1] = target: C. elegans (N2) complex I (NADH:ubiquinone oxidoreductase) (Caenorhabditis elegans, UniProt P24887+Q93873+Q94360); test: biochemical; assay type: biochemical; conditions: for activity at 15 µM / Complex I activity, dose-response data / activity at 37.5 µM / activity at 75 µM: C. elegans; for activity at 15 µM / activity at 37.5 µM / activity at 75 µM: read-out: Complex I activity, dose-response data
Chain of C. elegans (N2) complex I (NADH:ubiquinone oxidoreductase) (Q94360 17-199): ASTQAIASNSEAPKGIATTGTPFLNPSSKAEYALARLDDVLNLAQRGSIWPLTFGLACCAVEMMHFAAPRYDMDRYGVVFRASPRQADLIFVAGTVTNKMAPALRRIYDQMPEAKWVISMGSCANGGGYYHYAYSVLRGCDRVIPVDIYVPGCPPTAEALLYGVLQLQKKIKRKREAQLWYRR
Chain of C. elegans (N2) complex I (NADH:ubiquinone oxidoreductase) (P24887 whole entry): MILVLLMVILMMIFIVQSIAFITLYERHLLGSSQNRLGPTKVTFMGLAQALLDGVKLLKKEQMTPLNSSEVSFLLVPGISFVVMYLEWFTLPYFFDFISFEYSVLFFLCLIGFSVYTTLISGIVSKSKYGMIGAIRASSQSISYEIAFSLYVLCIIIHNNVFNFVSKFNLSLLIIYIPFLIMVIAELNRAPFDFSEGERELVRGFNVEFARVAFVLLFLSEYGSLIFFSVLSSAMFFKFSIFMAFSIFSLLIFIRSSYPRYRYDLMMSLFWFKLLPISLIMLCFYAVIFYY
Chain of C. elegans (N2) complex I (NADH:ubiquinone oxidoreductase) (Q93873 31-482): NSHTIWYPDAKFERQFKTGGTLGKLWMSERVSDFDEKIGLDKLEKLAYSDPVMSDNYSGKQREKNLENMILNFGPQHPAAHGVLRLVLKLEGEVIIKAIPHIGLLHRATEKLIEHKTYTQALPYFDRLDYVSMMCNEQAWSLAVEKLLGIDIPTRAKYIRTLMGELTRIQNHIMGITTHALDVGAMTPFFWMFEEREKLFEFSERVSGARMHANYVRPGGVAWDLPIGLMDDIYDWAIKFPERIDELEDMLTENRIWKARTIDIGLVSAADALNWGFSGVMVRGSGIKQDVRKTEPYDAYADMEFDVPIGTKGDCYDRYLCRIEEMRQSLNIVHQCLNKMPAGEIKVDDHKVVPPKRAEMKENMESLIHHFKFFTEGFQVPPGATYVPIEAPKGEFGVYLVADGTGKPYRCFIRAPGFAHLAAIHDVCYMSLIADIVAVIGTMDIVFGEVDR
Summary of the method: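 Mitochondria from liquid-cultured adults were freeze-thawed thrice before the 15-min DCIP-coupled NADH oxidation read.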

[2] = target: B. taurus (heart) complex I (Bos taurus, UniProt P03887+P17694+P42026); test: biochemical; assay type: biochemical
Chain of B. taurus (heart) complex I (P03887 whole entry): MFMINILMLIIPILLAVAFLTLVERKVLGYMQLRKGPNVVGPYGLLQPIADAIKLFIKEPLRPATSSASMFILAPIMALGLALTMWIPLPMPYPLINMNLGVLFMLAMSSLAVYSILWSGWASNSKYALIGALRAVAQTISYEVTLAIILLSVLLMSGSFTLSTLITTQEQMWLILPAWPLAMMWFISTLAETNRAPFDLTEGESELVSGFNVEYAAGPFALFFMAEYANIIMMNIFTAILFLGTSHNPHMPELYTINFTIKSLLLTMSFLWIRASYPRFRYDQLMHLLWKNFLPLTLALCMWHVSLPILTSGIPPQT
Chain of B. taurus (heart) complex I (P17694 34-463): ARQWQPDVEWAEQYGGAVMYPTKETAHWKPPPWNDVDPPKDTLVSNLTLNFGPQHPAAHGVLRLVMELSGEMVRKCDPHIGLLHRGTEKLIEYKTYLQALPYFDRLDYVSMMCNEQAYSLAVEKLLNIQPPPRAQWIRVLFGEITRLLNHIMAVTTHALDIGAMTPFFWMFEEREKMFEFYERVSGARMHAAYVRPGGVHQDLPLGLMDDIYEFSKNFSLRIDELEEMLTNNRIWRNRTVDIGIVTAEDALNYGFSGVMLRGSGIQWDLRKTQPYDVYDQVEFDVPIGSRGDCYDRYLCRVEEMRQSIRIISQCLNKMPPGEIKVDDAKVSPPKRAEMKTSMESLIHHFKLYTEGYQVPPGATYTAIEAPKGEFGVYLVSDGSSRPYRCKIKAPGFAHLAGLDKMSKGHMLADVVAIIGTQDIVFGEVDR
Chain of B. taurus (heart) complex I (P42026 38-216): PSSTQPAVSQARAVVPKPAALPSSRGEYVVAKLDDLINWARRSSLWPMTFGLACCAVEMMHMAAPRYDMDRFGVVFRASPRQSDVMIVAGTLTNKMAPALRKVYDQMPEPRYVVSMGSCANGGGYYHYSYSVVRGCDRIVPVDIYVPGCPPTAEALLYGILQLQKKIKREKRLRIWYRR
Summary of the method: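 Complex I activity followed as DCIP reduction (600 nm, 30 s reads, 15 min) with 80 μM NADH and 60 μM decylubiquinone in 25 mM KPi pH 7.5 containing 2 μM antimycin A and 2 mM KCN. Freeze-thawed mouse or bovine heart mitochondria at 0.2 mg/mL; initial-rate percent of solvent control, single-point 100 μM or dose-response.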

[3] = dose 15 µM, individual replicates (Rep)
[4] = dose 37.5 µM, individual replicates (Rep)
[5] = dose 75 µM, individual replicates (Rep)
[6] = B. taurus, Mean of replicates, read-out: Complex I activity, dose-response data
[7] = B. taurus, individual replicates (Rep), read-out: Complex I activity, dose-response data

COc1cc2c(cc1OC)C(c1ccc(-c3ccc(Cl)c(Cl)c3)o1)=NCC2 [NPD3577]
activity at 15 µM ([1]; dose 15 µM, Mean of replicates): 62.2%
Complex I activity, dose-response data [1, 3]: 63.065 and 59.782 and 63.349
activity at 15 µM [1, 3]: 62.5%
activity at 37.5 µM ([1]; dose 37.5 µM, Mean of replicates): 42.6%
Complex I activity, dose-response data [1, 4]: 41.693 and 41.389 and 49.686
activity at 37.5 µM [1, 4]: 37.8%
activity at 75 µM ([1]; dose 75 µM, Mean of replicates): 40.7%
Complex I activity, dose-response data [1, 5]: 47.397 and 37.818 and 40.786
activity at 75 µM [1, 5]: 36.7%
IC50 ([1]; wild-type (N2) mitochondria, read-out: C. elegans Complex I IC50): 12.1 µM
activity at 0.0001 µM ([2]; B. taurus, dose 0.0001 µM, Mean of replicates, read-out: Complex I activity, dose-response data): 105%
Complex I activity, dose-response data ([2]; B. taurus, dose 0.0001 µM, individual replicates (Rep)): 103.121 and 101.731 and 110.652
activity at 0.0001 µM ([2]; B. taurus, dose 0.0001 µM, individual replicates (Rep), read-out: Complex I activity, dose-response data): 106%
activity at 0.0005 µM [2, 6]: 100%
activity at 0.0005 µM [2, 7]: 100%
activity at 0.001 µM ([2]; B. taurus, dose 0.001 µM, Mean of replicates, read-out: Complex I activity, dose-response data): 106%
Complex I activity, dose-response data ([2]; B. taurus, dose 0.001 µM, individual replicates (Rep)): 115.208 and 104.399 and 94.945 and 110.770
activity at 0.0025 µM ([2]; B. taurus, dose 0.0025 µM, Mean of replicates, read-out: Complex I activity, dose-response data): 109%
Complex I activity, dose-response data ([2]; B. taurus, dose 0.0025 µM, individual replicates (Rep)): 105.176 and 104.207 and 109.459
activity at 0.0025 µM ([2]; B. taurus, dose 0.0025 µM, individual replicates (Rep), read-out: Complex I activity, dose-response data): 117%
activity at 0.005 µM ([2]; B. taurus, dose 0.005 µM, Mean of replicates, read-out: Complex I activity, dose-response data): 109%
Complex I activity, dose-response data ([2]; B. taurus, dose 0.005 µM, individual replicates (Rep)): 109.688 and 97.845 and 112.943
activity at 0.005 µM ([2]; B. taurus, dose 0.005 µM, individual replicates (Rep), read-out: Complex I activity, dose-response data): 116%
activity at 0.013 µM ([2]; B. taurus, dose 0.013 µM, Mean of replicates, read-out: Complex I activity, dose-response data): 106%
Complex I activity, dose-response data ([2]; B. taurus, dose 0.013 µM, individual replicates (Rep)): 116.009 and 85.825 and 105.823 and 114.478
activity at 0.025 µM ([2]; B. taurus, dose 0.025 µM, Mean of replicates, read-out: Complex I activity, dose-response data): 115%
Complex I activity, dose-response data ([2]; B. taurus, dose 0.025 µM, individual replicates (Rep)): 117.057 and 109.262 and 110.097
activity at 0.025 µM ([2]; B. taurus, dose 0.025 µM, individual replicates (Rep), read-out: Complex I activity, dose-response data): 124%
activity at 0.063 µM ([2]; B. taurus, dose 0.063 µM, Mean of replicates, read-out: Complex I activity, dose-response data): 111%
Complex I activity, dose-response data ([2]; B. taurus, dose 0.063 µM, individual replicates (Rep)): 116.393 and 107.485 and 112.565
activity at 0.063 µM ([2]; B. taurus, dose 0.063 µM, individual replicates (Rep), read-out: Complex I activity, dose-response data): 107%
activity at 0.125 µM ([2]; B. taurus, dose 0.125 µM, Mean of replicates, read-out: Complex I activity, dose-response data): 106%
Complex I activity, dose-response data ([2]; B. taurus, dose 0.125 µM, individual replicates (Rep)): 115.491 and 103.072 and 105.491
activity at 0.125 µM ([2]; B. taurus, dose 0.125 µM, individual replicates (Rep), read-out: Complex I activity, dose-response data): 100%
activity at 0.313 µM ([2]; B. taurus, dose 0.313 µM, Mean of replicates, read-out: Complex I activity, dose-response data): 109%
Complex I activity, dose-response data ([2]; B. taurus, dose 0.313 µM, individual replicates (Rep)): 109.249 and 104.276 and 103.070
activity at 0.313 µM ([2]; B. taurus, dose 0.313 µM, individual replicates (Rep), read-out: Complex I activity, dose-response data): 118%
activity at 0.625 µM ([2]; B. taurus, dose 0.625 µM, Mean of replicates, read-out: Complex I activity, dose-response data): 99%
Complex I activity, dose-response data ([2]; B. taurus, dose 0.625 µM, individual replicates (Rep)): 89.823 and 107.117 and 107.828
activity at 0.625 µM ([2]; B. taurus, dose 0.625 µM, individual replicates (Rep), read-out: Complex I activity, dose-response data): 91.2%
activity at 1.5 µM [2, 6]: 100%
activity at 1.5 µM [2, 7]: 100%
activity at 3 µM ([2]; B. taurus, dose 3 µM, Mean of replicates, read-out: Complex I activity, dose-response data): 95.5%
Complex I activity, dose-response data ([2]; B. taurus, dose 3 µM, individual replicates (Rep)): 93.418 and 99.797 and 99.095
activity at 3 µM ([2]; B. taurus, dose 3 µM, individual replicates (Rep), read-out: Complex I activity, dose-response data): 89.6%
activity at 15 µM ([2]; B. taurus, dose 15 µM, Mean of replicates, read-out: Complex I activity, dose-response data): 43.4%
Complex I activity, dose-response data ([2]; B. taurus, dose 15 µM, individual replicates (Rep)): 55.501 and 46.406 and 43.941 and 27.922
activity at 37.5 µM ([2]; B. taurus, dose 37.5 µM, Mean of replicates, read-out: Complex I activity, dose-response data): 26.1%
Complex I activity, dose-response data ([2]; B. taurus, dose 37.5 µM, individual replicates (Rep)): 16.844 and 31.768 and 25.172
activity at 37.5 µM ([2]; B. taurus, dose 37.5 µM, individual replicates (Rep), read-out: Complex I activity, dose-response data): 30.8%
activity at 75 µM ([2]; B. taurus, dose 75 µM, Mean of replicates, read-out: Complex I activity, dose-response data): 23.8%
Complex I activity, dose-response data ([2]; B. taurus, dose 75 µM, individual replicates (Rep)): 15.504 and 26.993 and 22.808
activity at 75 µM ([2]; B. taurus, dose 75 µM, individual replicates (Rep), read-out: Complex I activity, dose-response data): 30%
IC50 ([2]; heart mitochondria, read-out: B. taurus Complex I IC50): 9.49 µM
